Measurements: patent US8809362B2, “Anticancer agent sensitivity-determining marker” (priority 2009, dated 2014)

Key:
[1] = background statement; cited from earlier work
[2] = test system: HT-29 cells; assay: MTS assay cell viability under SN-38 exposure, HT-29; type: cell-based, human; conditions: HT-29, 50 nmol/L SN-38, exposure for 72 hours
Procedure: (§1) Two human colorectal cancer cell lines (HCT-116 and HT-29) employed were obtained from Kabushiki Kaisha Yakult Honsha.
(§2) Cell culturing was performed by means of a φ100 mm/Tissue Culture Dish (IWAKI) with a medium (Doulbecco's modified Eagle's Medium, 10% fetal bovine serum) at 37° C. under 5% CO2.
(§3) SN-38 powder was obtained from Kabushiki Kaisha Yakult Honsha. SN-38 was dissolved in DMSO, and, before use, the solution was diluted so that the DMSO concentration of each of the culture media employed in experiments was adjusted to 0.1% or less.
(§4) Cells of two colorectal cancer cell lines (HCT-116 and HT-29) were exposed to 50 nmol/L SN-38, and 24, 48, and 72 hours after drug exposure, cell viability was determined by means of an MTS assay (CellTiter96™AQueous One Solution Cell Proliferation Assay, Promega). Sensitivity evaluation of each cell line was performed in triplicate with three different passage numbers of cells, and the mean value and standard deviation were calculated.

[3] = test system: HCT-116 cells; assay: MTS assay cell viability under SN-38 exposure, HCT-116; type: cell-based, human; conditions: HCT-116, 50 nmol/L SN-38, exposure for 72 hours
Procedure: as §1, §2, §3, §4

[4] = test system: WiDr; assay: MTS assay sensitivity (IC50) to SN-38, WiDr (Example 3); type: cell-based, human; conditions: 72 hours exposure, highest IC50 of eight lines
Procedure: (§5) Cancer cells of each cell line were exposed to SN-38 (0 nmol/L to 5 μmol/L) for 72 hours. After exposure to SN-38, cell viability was determined by means of an MTS assay (CellTiter96™AQueous One Solution Cell Proliferation Assay, Promega). IC50 (concentration of SN-38 at which 50% of cells in an SN-38-non-treated well are inhibited) was calculated for each cell line and employed as the sensitivity of the cell line to SN-38. Sensitivity determination of each cell line was performed in triplicate and twice.
(§6) The experiment procedure of Example 2 was repeated twice. The data obtained in the experiments (three times in total) were further analyzed. Peaks detected through CE-TOFMS in the tested cell samples were compared with the data of 278 standard samples whose m/z values and migration times were already known, whereby 146 metabolites were identified in any of the tested cell samples. The 146 metabolites were investigated through single regression analysis in terms of the correlation between the intracellular content (in eight human colorectal cancer cell lines) and Log[IC50] of each cell line.
(§7) The sensitivity of each of eight human colorectal cancer cell lines (HCT-116, HT-29, HCT-15, Lovo, LS174T, SW480, SW620, and WiDr) was evaluated by employing IC50 calculated through MTS assay as an index.

[5] = test system: LS174T; assay: MTS assay sensitivity (IC50) to SN-38, LS174T (Example 3); type: cell-based, human; conditions: 72 hours exposure, lowest IC50 of eight lines
Procedure: as §5, §6, §7

For CCc1c2c(nc3ccc(O[C@@H]4O[C@H](C(=O)O)[C@@H](O)[C@H](O)[C@H]4O)cc13)-c1cc3c(c(=O)n1C2)COC(=O)[C@]3(O)CC [SN-38G, SN-38 glucuronate conjugate], the cytotoxicity [1] is given as “no cytotoxicity”.

With CCc1c2c(nc3ccc(O)cc13)-c1cc3c(c(=O)n1C2)COC(=O)[C@]3(O)CC [SN-38, 7-ethyl-10-hydroxycamptothecin] the cell viability [2] was “about 85%”, the cell viability [3] was “about 35%” and the IC50 [4] was 63.3 ± 10.9 nM. The IC50 [5] was 0.71 ± 0.18 nM and the “anti-tumor activity relative to CPT-11” value [1] was “about 100 times to some thousand times that of CPT-11”.
